Legend:
Assay type in all cases: in vivo
Cyperus serotinus = assay: Test Example 1: herbicidal effects, paddy-field pot test; conditions: wettable powder applied 3 days after transplanting, judged after 25 days
Outline: (§1)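 Herbicidal effect and rice injury were graded on a six-step growth-inhibition scale (0: 0–10% to 5: 91–100%) at 25 days after pot application of water-diluted wettable powder, given 3 days post-transplant under flooded greenhouse conditions.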

Scirpus joncoides = assay: as above; conditions: wettable powder applied 3 days after transplanting, judged after 25 days
Outline: as §1

[1] = system: annual broad-leaved weeds (Lindernia spp., Rotala indica); assay: as above; conditions: wettable powder applied 3 days after transplanting, judged after 25 days
Outline: as §1

[2] = system: barnyardgrass (Echinochloa oryzicola Vasing.); assay: as above; conditions: wettable powder applied 3 days after transplanting, judged after 25 days
Outline: as §1

[3] = system: transplanted paddy-field rice; assay: Test Example 1: crop injury against transplanted paddy-field rice; conditions: wettable powder applied 3 days after transplanting, judged after 25 days
Outline: as §1

barnyardgrass [4] = assay: Test Example 2: herbicidal effects (soil treatment); conditions: dosage 5 kg/a; soil treatment the day after seeding; judged after 21 days
Description: (§2) Judgment Standard • 0: Growth inhibition rate; 0 to 10% • 1: Growth inhibition rate; 11 to 30% • 2: Growth inhibition rate; 31 to 50% • 3: Growth inhibition rate; 51 to 70% • 4: Growth inhibition rate; 71 to 90% • 5: Growth inhibition rate; 91 to 100%.
(§3) Upland soil was filled in 150 cm^2 pot, and seeds of barnyardgrass and indian mustard (Brassica juncea (L.) Czern. et Coss) were sowed, and grown in a greenhouse. At the next day of seeding, a predetermined chemical dosage of the wettable powder prepared in accordance with Preparation example 1 was diluted in water and applied to soil surface. After 21 days from the treatment, herbicidal effects were judged in accordance with the judgment standard of Test example 1, and the results were shown in Table 3.

[5] = system: indian mustard (Brassica juncea (L.) Czern. et Coss); assay: as above; conditions: dosage 5 kg/a; soil treatment the day after seeding; judged after 21 days
Description: as §2, §3

indian mustard = assay: Test Example 3: herbicidal effects (foliar treatment); conditions: chemical dosage 0.5 kg/a; foliar treatment at 10 to 15 cm; judged after 14 days
Experimental: as §2
(§4) Upland soil was filled in 150 cm^2 pot, and seeds of velvetleaf, tall morningglory, indian mustard, black nightshade redroot pigweed were sowed, and grown in a greenhouse. After the weeds were grown with 10 to 15 cm or so, a predetermined chemical dosage of the wettable powder prepared in accordance with Preparation example 1 was diluted with water containing 0.05% of GRAMIN-S and applied as a foliar treatment. After 14 days from the treatment, herbicidal effects were judged in accordance with the judgment standard of Test example 1, and the results were shown in Table 4. Incidentally, “-” in the table means no test was carried out.

redroot pigweed = assay: as above; conditions: chemical dosage 0.5 kg/a; foliar treatment at 10 to 15 cm; judged after 14 days
Experimental: as §2, §4

tall morningglory [6] = assay: as above; conditions: chemical dosage 0.5 kg/a; foliar treatment at 10 to 15 cm; judged after 14 days
Experimental: as §2, §4

Cyperus esculentus L. [7] = assay: Test Example 5: herbicidal effects, upland (soil treatment); conditions: after 21 days
Experimental: (§5) Upland soil was filled in 150 cm^2 pot, and seeds of barnyardgrass, Cyperus esculentus L., velvetleaf, black nightshade, tall morningglory and corn were sowed, and grown in a greenhouse. At the next day of seeding, a predetermined chemical dosage of the wettable powder prepared in accordance with Preparation example 5 was diluted with water and applied to soil surface. After 21 days from the treatment, herbicidal effects and crop injury against corn were judged according to the following judgment standard, and the results were shown in Tables 6 to 8.
(§6) Judgment Standard • 0: Growth inhibition rate; 0 to 9% • 1: Growth inhibition rate; 10 to 19% • 2: Growth inhibition rate; 20 to 29% • 3: Growth inhibition rate; 30 to 39% • 4: Growth inhibition rate; 40 to 49% • 5: Growth inhibition rate; 50 to 59% • 6: Growth inhibition rate; 60 to 69% • 7: Growth inhibition rate; 70 to 79% • 8: Growth inhibition rate; 80 to 89% • 9: Growth inhibition rate; 90 to 98% • 10: Growth inhibition rate; 99 to 100%.

barnyardgrass [8] = assay: as above; conditions: after 21 days
Experimental: as §5, §6

black nightshade [9] = assay: as above; conditions: after 21 days
Experimental: as §5, §6

tall morningglory [10] = assay: as above; conditions: after 21 days
Experimental: as §5, §6

velvetleaf [11] = assay: as above; conditions: after 21 days
Experimental: as §5, §6

corn [12] = assay: Test Example 5: crop injury against corn (soil treatment); conditions: after 21 days
Experimental: as §5, §6

Cyperus esculentus L. [13] = assay: Test Example 6: herbicidal effects, upland (foliar treatment); conditions: after 14 days
Description: as §6
(§7) Upland soil was filled in 150 cm^2 pot, and seeds of barnyardgrass, Cyperus esculentus L., velvetleaf, black nightshade, tall morningglory and corn were sowed, and grown in a greenhouse. After the weeds were grown with 10 to 15 cm or so, a predetermined chemical dosage of the wettable powder prepared in accordance with Preparation example 5 was diluted with water containing 0.05% of GRAMIN S and applied as a foliar treatment. After 14 days from the treatment, herbicidal effects and crop injury were judged in accordance with the judgment standard of Test example 5, and the results were shown in Tables 9 and 10. Incidentally, “-” in the table means no effective ingredient was contained.

barnyardgrass [14] = assay: as above; conditions: after 14 days
Description: as §6, §7

black nightshade [15] = assay: as above; conditions: after 14 days
Description: as §6, §7

tall morningglory [16] = assay: as above; conditions: after 14 days
Description: as §6, §7

velvetleaf [17] = assay: as above; conditions: after 14 days
Description: as §6, §7

corn [18] = assay: Test Example 6: crop injury against corn (foliar treatment); conditions: after 14 days
Description: as §6, §7

Oc1cc(Cl)nnc1Oc1c(F)cccc1C1CC1 [Example 236]
Herbicidal effects Cyperus serotinus (Cyperus serotinus; chemical dosage 10 g/a): 5 (Growth inhibition rate; 91 to 100%)
Herbicidal effects Cyperus serotinus (Cyperus serotinus; chemical dosage 20 g/a): 5 (Growth inhibition rate; 91 to 100%)
Herbicidal effects Scirpus joncoides (Scirpus joncoides; chemical dosage 10 g/a): 5 (Growth inhibition rate; 91 to 100%)
Herbicidal effects Scirpus joncoides (Scirpus joncoides; chemical dosage 20 g/a): 5 (Growth inhibition rate; 91 to 100%)
Herbicidal effects Broad leaf ([1]; chemical dosage 10 g/a): 5 (Growth inhibition rate; 91 to 100%)
Herbicidal effects Broad leaf ([1]; chemical dosage 20 g/a): 5 (Growth inhibition rate; 91 to 100%)
Herbicidal effects Barnyard grass ([2]; chemical dosage 10 g/a): 3 (Growth inhibition rate; 51 to 70%)
Herbicidal effects Barnyard grass ([2]; chemical dosage 20 g/a): 4 (Growth inhibition rate; 71 to 90%)
Crop injury against transplanted rice ([3]; chemical dosage 10 g/a): 0 (Growth inhibition rate; 0 to 10%)
Crop injury against transplanted rice ([3]; chemical dosage 20 g/a): 0 (Growth inhibition rate; 0 to 10%)
Herbicidal effects Barnyard-grass (barnyardgrass [4]): 3 (Growth inhibition rate; 51 to 70%)
Herbicidal effects indian mustard [5]: 5 (Growth inhibition rate; 91 to 100%)
Herbicidal effects indian mustard (indian mustard): 3 (Growth inhibition rate; 51 to 70%)
Herbicidal effects Redroot pigweed (redroot pigweed): 3 (Growth inhibition rate; 51 to 70%)
Herbicidal effects Tall Morningglory (tall morningglory [6]): 4 (Growth inhibition rate; 71 to 90%)

CS(=O)(=O)c1ccc(C(=O)C2C(=O)CCCC2=O)c(Cl)c1 [Compound E, 2-(2-chloro-4-mesylbenzoyl)cyclohexan-1,3-dione]
Herbicidal effects Cyperus esculentus (Cyperus esculentus L. [7]; E alone 50 g/ha): 8 (Growth inhibition rate; 80 to 89%)
Herbicidal effects Cyperus esculentus (Cyperus esculentus L. [7]; E alone 100 g/ha): 8 (Growth inhibition rate; 80 to 89%)
Herbicidal effects Cyperus esculentus (Cyperus esculentus L. [7]; E alone 200 g/ha): 8 (Growth inhibition rate; 80 to 89%)
Herbicidal effects Barnyard grass (barnyardgrass [8]; E alone 50 g/ha): 7 (Growth inhibition rate; 70 to 79%)
Herbicidal effects Barnyard grass (barnyardgrass [8]; E alone 100 g/ha): 9 (Growth inhibition rate; 90 to 98%)
Herbicidal effects Barnyard grass (barnyardgrass [8]; E alone 200 g/ha): 10 (Growth inhibition rate; 99 to 100%)
Herbicidal effects Black Nightshade (black nightshade [9]; E alone 50 g/ha): 7 (Growth inhibition rate; 70 to 79%)
Herbicidal effects Black Nightshade (black nightshade [9]; E alone 100 g/ha): 6 (Growth inhibition rate; 60 to 69%)
Herbicidal effects Black Nightshade (black nightshade [9]; E alone 200 g/ha): 9 (Growth inhibition rate; 90 to 98%)
Herbicidal effects Tall Morningglory (tall morningglory [10]; E alone 50 g/ha): 6 (Growth inhibition rate; 60 to 69%)
Herbicidal effects Tall Morningglory (tall morningglory [10]; E alone 100 g/ha): 7 (Growth inhibition rate; 70 to 79%)
Herbicidal effects Tall Morningglory (tall morningglory [10]; E alone 200 g/ha): 10 (Growth inhibition rate; 99 to 100%)
Herbicidal effects Velvetleaf (velvetleaf [11]; E alone 50 g/ha): 7 (Growth inhibition rate; 70 to 79%)
Herbicidal effects Velvetleaf (velvetleaf [11]; E alone 100 g/ha): 7 (Growth inhibition rate; 70 to 79%)
Herbicidal effects Velvetleaf (velvetleaf [11]; E alone 200 g/ha): 10 (Growth inhibition rate; 99 to 100%)
Crop injury against corn (corn [12]; E alone 50 g/ha): 0 (Growth inhibition rate; 0 to 9%)
Crop injury against corn (corn [12]; E alone 100 g/ha): 0 (Growth inhibition rate; 0 to 9%)
Crop injury against corn (corn [12]; E alone 200 g/ha): 0 (Growth inhibition rate; 0 to 9%)
Herbicidal effects Cyperus esculentus (Cyperus esculentus L. [13]; E alone 50 g/ha): 6 (Growth inhibition rate; 60 to 69%)
Herbicidal effects Cyperus esculentus (Cyperus esculentus L. [13]; E alone 100 g/ha): 7 (Growth inhibition rate; 70 to 79%)
Herbicidal effects Cyperus esculentus (Cyperus esculentus L. [13]; E alone 200 g/ha): 8 (Growth inhibition rate; 80 to 89%)
Herbicidal effects Barnyard grass (barnyardgrass [14]; E alone 50 g/ha): 1 (Growth inhibition rate; 10 to 19%)
Herbicidal effects Barnyard grass (barnyardgrass [14]; E alone 100 g/ha): 2 (Growth inhibition rate; 20 to 29%)
Herbicidal effects Barnyard grass (barnyardgrass [14]; E alone 200 g/ha): 7 (Growth inhibition rate; 70 to 79%)
Herbicidal effects Black Nightshade (black nightshade [15]; E alone 50 g/ha): 9 (Growth inhibition rate; 90 to 98%)
Herbicidal effects Black Nightshade (black nightshade [15]; E alone 100 g/ha): 10 (Growth inhibition rate; 99 to 100%)
Herbicidal effects Black Nightshade (black nightshade [15]; E alone 200 g/ha): 10 (Growth inhibition rate; 99 to 100%)
Herbicidal effects Tall Morningglory (tall morningglory [16]; E alone 50 g/ha): 6 (Growth inhibition rate; 60 to 69%)
Herbicidal effects Tall Morningglory (tall morningglory [16]; E alone 100 g/ha): 7 (Growth inhibition rate; 70 to 79%)
Herbicidal effects Tall Morningglory (tall morningglory [16]; E alone 200 g/ha): 9 (Growth inhibition rate; 90 to 98%)
Herbicidal effects Velvetleaf (velvetleaf [17]; E alone 50 g/ha): 9 (Growth inhibition rate; 90 to 98%)
Herbicidal effects Velvetleaf (velvetleaf [17]; E alone 100 g/ha): 10 (Growth inhibition rate; 99 to 100%)
Herbicidal effects Velvetleaf (velvetleaf [17]; E alone 200 g/ha): 10 (Growth inhibition rate; 99 to 100%)
Crop injury against corn (corn [18]; E alone 50 g/ha): 0 (Growth inhibition rate; 0 to 9%)
Crop injury against corn (corn [18]; E alone 100 g/ha): 0 (Growth inhibition rate; 0 to 9%)
Crop injury against corn (corn [18]; E alone 200 g/ha): 0 (Growth inhibition rate; 0 to 9%)

— patent US7964531B2, “3-phenoxy-4-pyridazinol derivatives and herbicidal composition containing the same” (Mitsui Chemicals Agro, Inc., priority 2001, dated 2011)
